Data from article PMC9025269, “Synthesis and Anti-Hepatitis B Activities of 3′-Fluoro-2′-Substituted Apionucleosides” (Molecules, 2022).

Tests used:
[1] = biological target: T1, HIV-1 reverse transcriptase (HIV-1 RT) (Human immunodeficiency virus type 1 group M subtype B, UniProt P03366); experiment: HIV-1 reverse transcriptase RdDp activity assay; assay type: biochemical
T1 construct: HIV-1 reverse transcriptase (HIV-1 RT) was purchased from Abcam (cat#ab63979); purchased Abcam ab63979
Text: HIV-1 reverse transcriptase (HIV-1 RT) was purchased from Abcam (cat#ab63979). Recombinant HBV polymerase (Hepatitis B virus genotype D subtype ayw, full length) was cloned using the baculovirus system, expressed in sf9 cells, and purified with similar strategy and methods described by Lanford et al.. A DNA primer (5′-[…]-3′) was synthesized by IDTDNA and a 358-nt RNA template was synthesized in-house using Megascript T7 transcription kit (ThermoFisher, cat#AM1334). dNTPs were purchased from Thermo Fisher and ^3H-dTTP from Perkin Elmer. Filter plates were purchased from Millipore (cat#MABN0V050) and microscint-20 was purchased from Perkin Elmer (cat#6013621).
The RNA-dependent DNA polymerization (RdDp) activity of HIV-1 RT was measured by the incorporation of radioactively labeled nucleotides by HIV-1 RT into acid-insoluble DNA products from the DNA primer primed RNA template. To test compound inhibition, the reactions were performed at 30 °C for 40 min in a reaction mixture containing reaction buffer (50 mM Tris-Cl, pH 7.5, 100 mM KCl, 12.5 mM MgCl2, 4 mM DTT), 1 nM HIV-1 RT, 0.1 µM DNA primer, 0.02 µM RNA template, 10% DMSO, 0.1 µM dATP, 1 µM dGTP, 0.1 µM dCTP, 0.32 µM ^3H-dTTP, and compounds at various concentrations. The 50 µL reactions were performed in 96-well plates. The reactions were quenched with a 60 µL cold mixture of 20% (w/v) TCA and 0.5 mM ATP and incubated at 4 °C for 1 h. The reactions were loaded onto 96-well filter plates. The filters on plates were washed three times with 10% TCA and once with 70% ethanol on a Millipore plate wash station with vacuum applied. The filters on the plate were air-dried and 40 μL Microscint-20 was added to each well. The acid-precipitated tritiated DNA products retained on the filters were detected by a Trilux MicroBeta scintillation reader (Perkin Elmer).
All data were analyzed with GraphPad Prism. The compound concentration at which the enzyme-catalyzed rate was reduced by 50% (IC50) was calculated by fitting the data to the equation Y = % Min + (% Max − % Min) / (1 + 10^((logIC50-X)*h)), where Y corresponds to the percent inhibition to the enzyme activity, % Min is the residual inhibition activity without compound, % Max is the maximum inhibition of enzyme activity at saturating compound concentration, and X corresponds to the log of compound concentrations, and h is the hillslope.

human DNA polymerase γ = biological target: T2, human DNA polymerase γ (Homo sapiens, UniProt P54098); experiment: Human DNA polymerase γ DdDp assay; assay type: biochemical
T2 construct: purchased Abcam 196066
T2 sequence (P54098 1-1239): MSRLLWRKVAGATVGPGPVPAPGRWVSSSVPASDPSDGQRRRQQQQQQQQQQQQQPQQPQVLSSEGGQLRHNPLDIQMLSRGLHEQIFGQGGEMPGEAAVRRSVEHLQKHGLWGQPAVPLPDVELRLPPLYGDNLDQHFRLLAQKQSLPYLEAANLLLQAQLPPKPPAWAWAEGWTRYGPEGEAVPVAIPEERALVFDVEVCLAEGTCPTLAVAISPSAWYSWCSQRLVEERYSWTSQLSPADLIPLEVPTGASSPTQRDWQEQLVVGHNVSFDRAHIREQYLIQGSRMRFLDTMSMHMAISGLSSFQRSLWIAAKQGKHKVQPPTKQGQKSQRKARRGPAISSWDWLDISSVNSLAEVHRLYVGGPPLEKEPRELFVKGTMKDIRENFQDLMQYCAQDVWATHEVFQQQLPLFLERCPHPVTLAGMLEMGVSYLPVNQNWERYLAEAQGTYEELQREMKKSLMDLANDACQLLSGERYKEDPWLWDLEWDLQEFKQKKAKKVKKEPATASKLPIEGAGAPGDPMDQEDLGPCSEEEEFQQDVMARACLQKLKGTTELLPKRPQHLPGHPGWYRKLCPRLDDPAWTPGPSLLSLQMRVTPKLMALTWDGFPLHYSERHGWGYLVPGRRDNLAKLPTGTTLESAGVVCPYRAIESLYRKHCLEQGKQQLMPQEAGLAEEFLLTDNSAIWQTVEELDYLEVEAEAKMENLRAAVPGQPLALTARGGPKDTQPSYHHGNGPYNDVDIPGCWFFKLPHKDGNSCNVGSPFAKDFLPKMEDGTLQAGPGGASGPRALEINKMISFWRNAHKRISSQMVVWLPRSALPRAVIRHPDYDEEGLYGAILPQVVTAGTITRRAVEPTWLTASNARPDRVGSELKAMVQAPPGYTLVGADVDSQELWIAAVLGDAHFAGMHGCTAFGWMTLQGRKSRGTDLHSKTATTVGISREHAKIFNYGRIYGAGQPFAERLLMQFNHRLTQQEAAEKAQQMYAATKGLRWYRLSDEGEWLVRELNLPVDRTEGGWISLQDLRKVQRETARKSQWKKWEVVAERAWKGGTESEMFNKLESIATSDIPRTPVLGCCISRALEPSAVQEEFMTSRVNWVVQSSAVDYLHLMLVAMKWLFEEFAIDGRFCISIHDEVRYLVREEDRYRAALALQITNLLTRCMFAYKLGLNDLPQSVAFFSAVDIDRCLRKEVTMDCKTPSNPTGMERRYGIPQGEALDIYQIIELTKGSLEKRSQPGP
Protocol: The DNA-dependent DNA polymerization (DdDp) activity of human DNA polymerases α, β, and γ was measured as described previously. Briefly, the assays were run with 5 U/mL recombinant DNA polymerase α (CHIMERx, cat#1075-1), 0.5 U/mL recombinant DNA polymerase β (CHIMERx, cat#1077-1), or 0.1 μg/mL recombinant DNA polymerase γ (Abcam, cat#196066), 62 μg/mL activated calf thymus DNA, 50 mM Tris-HCl (pH 8.0), 60 mM KCl, 5 mM MgCl2, 4 mM dithiothreitol (DTT), 0.1 mg/mL BSA, 2 μM dCTP, 2 μM dATP, 2 μM dGTP, 0.05 μCi/μL ^3H-dTTP (Perkin Elmer) and compounds at various concentrations at 30 °C for 2 h. The 50 μL reactions were processed following the same filter plate method as described above for HIV-1 RT. Acid-precipitated tritiated DNA products retained on the filters were detected by a Trilux MicroBeta scintillation reader (Perkin Elmer). All data were analyzed as described above for HIV-1 RT.

Nc1ncnc2c1ncn2[C@@H]1OC[C@](F)(COP(=O)(O)OP(=O)(O)OP(=O)(O)O)[C@H]1CO [Compound 38, ((3S,4S,5R)-5-(6-Amino-9H-purin-9-yl)-3-fluoro-4-(hydroxymethyl)tetrahydrofuran-3-yl)methyl triphosphate]
IC50 [1]: 320 nM | inhibition of HIV-1 RT [1]: potent inhibitor of HIV-1 RT | IC50 (human DNA polymerase γ): > 100000 nM
